Laboratory results from the METLIN SMRT retention time set (Domingo-Almenara et al. 2019).

Assay: gradient 5% acetonitrile 3 min, to 50% in 2 min, to 85% in 15 min, held 3 min, 100 µL/min
Conditions: column: Zorbax Extend-C18 2.1 x 50 mm; eluents: water / acetonitrile, 0.1% formic acid
How it was run: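 Retention times of pure standards were taken from adduct peaks that were selected by computer and manually inspected. Over 3 months, mixtures of ~100 molecules were run by HPLC–quadrupole time-of-flight mass spectrometry in positive and negative ionization mode. The Zorbax Extend-C18 column (2.1 × 50 mm, 1.8 μm) ran at 100 μL/min in water and acetonitrile, each containing 0.1% formic acid, with 40 μL dead volume and 900 μL dwell volume.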

RP-LC retention time | SMILES
710 s | COc1ccc(OCc2nnc3sc(-c4ccncc4)nn23)cc1
861 s | CCOC(=O)c1ccc(N2C=C(C(=O)OC)S(=O)(=O)c3cc(F)ccc32)cc1
599 s | O=C(NCCN1CCOCC1)c1c2c(nc3ccccc13)C(=O)N(C1CCCCC1)C2
868 s | CCn1ccc(C(=O)Nc2ccc(OCc3nnc(-c4ccccc4)o3)cc2)n1
846 s | COc1ccc(NC(=O)N2CCCC(C)(C(=O)NCc3ccccc3)C2)c(OC)c1 (stereo not drawn)
766 s | Cc1nn(CC(=O)NCCc2c[nH]c3ccc(Cl)cc23)c(=O)c2noc(C)c12
807 s | CCCn1c(=O)sc2cc(S(=O)(=O)N3CCC(C(=O)N4CCCC4)CC3)ccc21
941 s | CCOc1ccccc1NS(=O)(=O)c1ccc2c(c1)C(=O)N(C)c1ncccc1O2
682 s | CC(=O)N1CCc2sc(C(=O)NCc3ccc4c(c3)OCO4)cc2C1
626 s | COc1ccc(N2CCN(C(=O)C3CCc4nc(N5CCCC5)ncc4C3)CC2)cc1 (stereo not drawn)
718 s | O=C(Nc1nnc(-c2ccsc2)o1)C1CC(=O)N(c2ccc(Cl)cc2)C1 (stereo not drawn)
763 s | CC(=O)N1CCc2cc(CNS(=O)(=O)c3ccccc3Cl)ccc21
987 s | Cc1ccccc1Cn1nc2c(S(=O)(=O)N3CCc4ccccc4C3)cccn2c1=O
619 s | O=C(Cn1nc2n(c1=O)CCCC2)NCc1ccc2c(c1)OCO2
592 s | COc1ccc(CN2C[C@@H](CO)[C@H](c3ccncc3)C2)cc1OC
782 s | O=C(COc1ccccc1)N1CCN(S(=O)(=O)c2cc3c4c(c2)CCC(=O)N4CCC3)CC1
800 s | CCC(=O)N(C1CCOCC1)C1CCN(S(=O)(=O)c2ccc(OC)cc2)CC1
696 s | CN1CCCn2cc(S(=O)(=O)Nc3ccc(F)cc3Cl)cc2C1=O
889 s | CC(C)c1nc(C2Cc3ccccc3N2C(=O)NCc2ccco2)no1 (stereo not drawn)
698 s | CCOc1ccccc1NC(=O)N(Cc1cccs1)C1CCN(CC)CC1
642 s | O=C(CCc1ccc2nc(-c3ccccc3)[nH]c2c1)N1CCCCCC1
1070 s | CC1(C)CC(=O)c2cn(-c3ccc(F)cc3)c(=O)c(C(=O)Nc3ccccc3F)c2C1

RP-LC retention time | SMILES
678 s | O=C(CN1CCN(c2ccc(F)c(F)c2)C1=O)NC1CCSC1=O (stereo not drawn)
1090 s | O=C(c1ccc(Cl)s1)N1CC(c2nc(-c3cccc(C(F)(F)F)c3)no2)C1
807 s | O=c1c(NC2CCCCCC2)nc2ccncc2n1Cc1ccccc1
872 s | COc1ccc(OC)c(NS(=O)(=O)c2ccc3c(c2)C(=O)N(C)c2ncccc2O3)c1
1110 s | COc1ccc(-n2nc(C)c3sc(N4CCCC(C(=O)NC5CCCCC5)C4)nc32)cc1 (stereo not drawn)
686 s | COCCn1cc(CCNC(=O)Nc2c(C)cccc2C)c2cccnc21
563 s | CN(C)C(=O)c1cc2c(s1)CCC(C(=O)NCCc1ccncc1)C2 (stereo not drawn)
682 s | COC(=O)c1cnc2nc(C)ccc2c1Nc1ccc(OC)c(Cl)c1
1300 s | Cc1ccccc1-c1noc(CSc2nc3cc4c(cc3c(=O)n2Cc2ccccc2)OCO4)n1
742 s | CSc1cccc(NC(=O)CC2COc3ccccc3NC2=O)c1 (stereo not drawn)
568 s | CCNc1cc(N2CCC(CCC(=O)NCc3ccc(OC)cc3)CC2)ncn1
793 s | CC1=C(c2ccc(C)c(C)c2)S(=O)(=O)N=C1N1CCCN(C(=O)C2CC2)CC1
1030 s | CCCc1ccc(S(=O)(=O)N2CC=C(c3cn(C)c4ncccc34)CC2)cc1
733 s | Cc1ccc(S(=O)(=O)N2CCC(c3nc(C(=O)N4CCCC4)c(C)o3)CC2)cc1
591 s | COCCNC(=O)CCc1nc2ccccc2[nH]c1=O
797 s | COCc1cc2nn(CC(=O)Nc3ccc(OC)c(F)c3)c(=O)n2c(-c2ccccc2)n1
617 s | COc1ccc(Cl)cc1N1CC(c2nc3ccccc3n2CCN2CCOCC2)CC1=O (stereo not drawn)
691 s | O=C(Nc1ccccc1)N1CCC(N2CCN(Cc3cccc(F)c3)C(=O)C2=O)CC1
675 s | CCCNC(=O)C1CCN(c2ccc(SCC(=O)NCc3ccc(C(F)(F)F)cc3)nn2)CC1
700 s | O=C(NCc1cccnc1-c1ccc(F)cc1)c1cc(F)ccc1Cl
1000 s | CC(C)CN(CC(C)C)C(=O)C1CCCN(c2ncnc3c2nc2n3CCCCC2)C1 (stereo not drawn)
629 s | O=C(NCCCn1nc(-c2ccncc2)ccc1=O)C1c2ccccc2Oc2ccccc21

RP-LC retention time | SMILES
692 s | CO[C@H]1C(=O)N(C(C)C)[C@H]1C1CCN(C(=O)c2ccco2)CC1
596 s | Cc1noc(C)c1CN1CCC(NC(=O)c2ccc3cc[nH]c3c2)CC1
764 s | CCc1noc(NC(C)=O)c1-c1ccc(OC)c(S(=O)(=O)Nc2ccccc2)c1
610 s | O=C(NCC1CCN(c2ncccn2)CC1)Nc1c(F)cccc1F
924 s | CCCCOc1ccc(CNC(=O)CN2CC=C(c3cnn(-c4ccc(C)c(C)c4)c3)CC2)cc1
850 s | c1ccc(-c2nnc(-c3ccccn3)s2)nc1
820 s | CCn1cc(-c2nc(-c3ccccc3OC)no2)c(=O)c2cc(F)ccc21
852 s | O=C(NC1CCCCCCC1)C1CCN(C(=O)c2ncn3c2COC(c2ccc(F)cc2)C3)CC1 (stereo not drawn)
623 s | Cc1ccc(NC(=O)N2CCN(C3=CC4=NCC(C)N4C=N3)CC2)c(C)c1 (stereo not drawn)
971 s | Cc1nc(-c2csc(S(=O)(=O)N3CCC(C(=O)NCCC4=CCCCC4)CC3)c2)no1
764 s | CC(=O)N1CCc2ccccc2C1C(=O)NCc1cc(F)cc(F)c1 (stereo not drawn)
954 s | O=C(NCc1ccco1)N1CCN(c2nc3ccccc3nc2C(F)(F)F)CC1
792 s | CCOC(=O)C1CCN(C(=O)C2CCN(c3nnc(-c4ccc(OC)cc4)o3)CC2)CC1
1070 s | Cc1cccc(S(=O)(=O)N2CCc3nc(-c4ccccc4)ncc3C2)c1
909 s | CCc1cccc(C)c1NC(=O)Cn1c(=O)n(-c2ccc(C)cc2)c(=O)c2c1cc(C)n2C
953 s | Cc1ccc(-c2nc(C)cc3nn(CC(=O)Nc4cccc(Br)c4)c(=O)n23)cc1
739 s | Cc1cc(C(F)(F)F)nn1CC(=O)NCC12CCC=C1N(C)C(=O)CC2 (stereo not drawn)
1160 s | Cc1oc(-c2ccccc2)nc1Cc1noc(-c2cccc(F)c2)n1
812 s | COc1ccccc1N1CCN(C[C@@H](C(=O)NC(C)(C)C)c2ccccc2)CC1
751 s | Nc1nnc(SCC(=O)Nc2nc(-c3ccccc3)cs2)s1
654 s | Cc1noc(C2CN(C(=O)Nc3c(F)cccc3F)CC23CCOCC3)n1 (stereo not drawn)
585 s | Oc1cc2c(cc1O)C(c1ccccc1)CNCC2 (stereo not drawn)

RP-LC retention time | SMILES
723 s | Cc1nc(-c2csc(S(=O)(=O)N3CCC(C(=O)NC4CC4)CC3)c2)no1
659 s | Cc1cc(C)c(S(=O)(=O)NCCn2c(C)cnc2C2CC2)cc1C
875 s | O=C1Cc2ccccc2N1c1c(Cl)cccc1Cl
801 s | CN(C)C(=O)c1ccc2c(c1)n(Cc1cccc(F)c1)c(=O)c1ccnn12
1100 s | Cc1cc(-c2c(C)sc(C)c2S(=O)(=O)Nc2cccc(Br)c2)n[nH]1
860 s | CCc1ccccc1N1C(=O)CN(S(C)(=O)=O)CC1(C)C(=O)NCc1ccc(C)cc1 (stereo not drawn)
1010 s | COc1ccc(Cl)cc1NC(=O)NCCC1CCN(S(=O)(=O)c2ccccc2)CC1
609 s | CCOc1cc(=O)c(C(=O)N2CCC(C(N)=O)CC2)nn1-c1ccc(OC)cc1
724 s | O=C(CCc1c(-c2cccc(Cl)c2)nc2ccccn12)N1CCN(c2ccc(F)cc2)CC1
658 s | COc1ccc(C(C)NC(=O)c2nc(N(C)C)c3c(C)cc(C)nc3n2)cc1 (stereo not drawn)
984 s | CC(C)(C)c1noc(-c2cccnc2-n2cnc(C(=O)Nc3ccc(F)cc3)c2)n1
847 s | Cc1ccc(CN2CCN(C3CCN(S(=O)(=O)c4ccccc4Cl)CC3)C(=O)C2=O)cc1
1220 s | Cc1ccc(-c2nnc(Cc3nc(-c4cccc(C(F)(F)F)c4)no3)o2)cc1C
641 s | CC(C)N1CCN(S(=O)(=O)c2cc(-c3nnc(C4CCCC4)o3)co2)CC1
657 s | CCS(=O)(=O)N1CCCc2cc(C(=O)NC)ccc21
830 s | O=C(CS(=O)Cc1cnn(-c2ccccc2)c1-n1cccc1)NCc1cccc(Br)c1 (stereo not drawn)
915 s | Cc1ccc(C)c(C(O)Cn2ccn3nc(-c4cccs4)cc3c2=O)c1 (stereo not drawn)
808 s | O=C(c1ccccc1)N1CCN(C(=O)N(c2ccccc2)c2ccccc2)CC1
735 s | CCCn1c(C2CCN(C(=O)c3ccc(Br)o3)C2)nc2cccnc21 (stereo not drawn)
689 s | O=C(NCc1ccccc1F)C1CCN(c2cnc3nccnc3c2)CC1
939 s | CCc1noc(-c2ccnc(-n3cnc(C(=O)NCc4ccccc4C)c3)c2)n1
916 s | O=C(c1cn(Cc2ccccc2)cc2c(=O)n(-c3ccccc3)nc1-2)N1CCc2ccccc21
